Experimental data reported in PMC2766259 (Synapse (New York, N.Y.), 2009).
Read-outs that look alike come from different tables or passages of the source.

Experiments:
[1] = test system: α4β2* nAChRs; conditions: pigs, CI; ref Brust et al., 2008; cited from earlier work
[2] = test system: α4β2* nAChRs; conditions: cited from earlier work
[3] = test system: α4β2* nAChRs; conditions: in rats; ref Saji et al., 2002; cited from earlier work
[4] = Plasma metabolite analysis by column-switch HPLC after intravenous 5-[^123I]IA; format: in vivo, Humans (Homo sapiens); conditions: drawn simultaneously 30 minutes or later after administration
[5] = Safety and tolerability monitoring after intravenous 5-[^123I]IA; format: in vivo, Humans (Homo sapiens)
[6] = test system: α4β2* nAChRs; conditions: ref Saji et al., 2002; cited from earlier work
[7] = test system: α4β2* nAChRs; conditions: ref Chefer et al., 1998; cited from earlier work
[8] = test system: α4β2* nAChRs; conditions: cited from earlier work; remark: listed apart in the source
[9] = test system: α4β2* nAChRs; conditions: in rats; ref Saji et al., 2002; cited from earlier work; remark: listed apart in the source
[10] = target: high-affinity α4β2* neuronal nicotinic acetylcholine receptors (nAChRs) (Homo sapiens, UniProt P17787+P43681); assay: 5-[^123I]IA SPECT of the living human brain, VOI kinetic analysis; format: in vivo, Humans (Homo sapiens)
[11] = as above; format: in vivo, Humans (Homo sapiens); conditions: human, intravenous

Chain of high-affinity α4β2* neuronal nicotinic acetylcholine receptors (nAChRs) (P43681 29-627 limits assumed): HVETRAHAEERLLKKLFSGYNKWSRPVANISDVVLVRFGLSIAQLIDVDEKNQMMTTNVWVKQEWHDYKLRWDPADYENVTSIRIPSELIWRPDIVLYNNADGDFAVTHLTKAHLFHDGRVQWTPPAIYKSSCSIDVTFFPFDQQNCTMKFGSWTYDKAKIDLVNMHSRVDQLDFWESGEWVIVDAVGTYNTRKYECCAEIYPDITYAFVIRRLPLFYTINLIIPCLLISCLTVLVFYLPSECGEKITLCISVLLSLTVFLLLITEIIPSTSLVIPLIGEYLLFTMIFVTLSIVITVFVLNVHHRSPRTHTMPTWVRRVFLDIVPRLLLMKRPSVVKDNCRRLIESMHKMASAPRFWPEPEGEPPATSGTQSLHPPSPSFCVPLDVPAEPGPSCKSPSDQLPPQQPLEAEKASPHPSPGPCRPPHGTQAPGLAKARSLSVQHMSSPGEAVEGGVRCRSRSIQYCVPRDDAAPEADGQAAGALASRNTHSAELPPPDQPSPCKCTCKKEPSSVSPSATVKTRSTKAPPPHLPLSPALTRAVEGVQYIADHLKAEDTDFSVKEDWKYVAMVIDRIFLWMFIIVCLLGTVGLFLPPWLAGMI
Chain of high-affinity α4β2* neuronal nicotinic acetylcholine receptors (nAChRs) (P17787 26-502): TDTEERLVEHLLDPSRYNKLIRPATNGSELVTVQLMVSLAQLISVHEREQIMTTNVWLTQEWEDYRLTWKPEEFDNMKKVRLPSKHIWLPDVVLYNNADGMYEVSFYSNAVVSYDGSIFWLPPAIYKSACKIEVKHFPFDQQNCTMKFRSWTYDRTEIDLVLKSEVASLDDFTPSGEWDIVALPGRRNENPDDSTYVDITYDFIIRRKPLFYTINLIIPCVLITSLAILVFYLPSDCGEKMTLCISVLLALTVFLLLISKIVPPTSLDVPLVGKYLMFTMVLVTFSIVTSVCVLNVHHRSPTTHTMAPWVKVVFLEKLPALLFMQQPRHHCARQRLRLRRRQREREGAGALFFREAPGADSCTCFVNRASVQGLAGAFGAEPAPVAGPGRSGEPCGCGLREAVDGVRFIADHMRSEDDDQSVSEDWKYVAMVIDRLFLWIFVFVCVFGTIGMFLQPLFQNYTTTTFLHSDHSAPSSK

SMILES: [18F]c1ccc([C@@H]2C[C@H]3CCC[C@@H]2N3)cn1 [(−)-[^18F]NCFHEB, [^18F]norchloro-fluoro-homoepibatidine]
- Conclusion: attainment of equilibrium [1]: • (−)-[^18F]NCFHEB attains equilibrium before 2-[^18F]FA

SMILES: [123I]c1cncc(OC[C@@H]2CCN2)c1 [5-[^123I]IA, (S)-5-[^123I]iodo-3-(2-azetidinylmethoxy)pyridine]
- Conclusion: regional uptake ([2]; baboon, ref Baldwin et al., 2006): • Uptake high in thalamus, moderate in cortex and basal ganglia, low in cerebellum. SPECT brain radioactivity represents5-[^123I]IA distribution
- Conclusion: safety and efficacy ([2]; ref Fujita et al., 2000): 5-[^123I]IA is safe, efficacious in baboons.
- regional brain uptake [3]: high uptake in the thalamus, moderate uptake in the cortex, and low uptake in the cerebellum
- extent of metabolism, arterial versus venous blood samples [4]: identical extents of metabolism
- vital signs and electrocardiograms ([5]; before administration and subsequent 24 hours): normal
- abnormalities of behavior or movement (AIMS, BPRS) ([5]; before or after administration): no abnormalities of behavior or movement
- Electrocardiogram, blood pressure, and pulse ([5]; during each study, twelve healthy adults): did not change
- Conclusion: safety and efficacy ([5]; humans, smokers, nonsmokers, secondhand smoke exposure, current study): • 5-[^123I]IA is safe, efficacious in humans (smokers, nonsmokers, people with secondhand smoke exposure
- Conclusion: safety and efficacy [6]: • 5-[^123I]IA is safe, efficacious in a marmoset.
- Conclusion: safety and efficacy [7]: 5-[^123 I]IA is safe and efficacious for brain imaging in monkeys.
- Conclusion: metabolism and plasma protein binding by sex ([8]; 29 nonsmokers, ref Cosgrove et al., 2007): greater in women than in men
- Conclusion: safety and efficacy ([8]; ref Fujita et al., 2002): • 5-[^123I]IA is safe, efficacious in humans.
- Conclusion: safety and efficacy ([8]; ref Ishizu et al., 2004): • 5-[^123I]IA is safe, efficacious in humans.
- Conclusion: safety and efficacy ([8]; ref Mamede et al., 2004): • 5-[^123I]IA is safe, efficacious in humans.
- Conclusion: safety and efficacy ([8]; ref Staley et al., 2005): • 5-[^123I]IA is safe, efficacious in humans.
- Conclusion: safety and efficacy ([8]; ref Ueda et al., 2004): • 5-[^123I]IA is safe, efficacious in humans.
- binding affinity relative to (−)-nicotine [9]: seven times greater
- binding affinity relative to A-85380 [9]: comparable to A-85380
- time of maximal cerebellar uptake ([10]; after injection): 40 min
- time of peak thalamic uptake ([10]; after injection): approximately 140 minutes
- brain uptake ([10]; living human brain): good brain uptake
- reversibility of binding ([10]; time activity curves): reversible binding with substantial dissociation by 6 h
- Kp ([11]; brain (cortex), 8.1 mCi, Distribution volume (DV), Cortex, subject 1, bolus): 12.8
- Kp ([11]; brain (cortex), 8.8 mCi, Distribution volume (DV), Cortex, subject 4, bolus): 7.62
- Kp ([11]; brain (cortex), 9.3 mCi, Distribution volume (DV), Cortex, subject 3, bolus): 13
- Kp ([11]; brain (frontal lobe), 8.1 mCi, Distribution volume (DV), Frontal lobe, subject 1, bolus): 9.6
- Kp ([11]; brain (frontal lobe), 8.8 mCi, Distribution volume (DV), Frontal lobe, subject 4, bolus): 5.46
- Kp ([11]; brain (frontal lobe), 9.3 mCi, Distribution volume (DV), Frontal lobe, subject 3, bolus): 8.56
- Kp ([11]; brain (fusiform gyrus), 8.1 mCi, Distribution volume (DV), Fusiform gyrus, subject 1, bolus): 9.34
- Kp ([11]; brain (fusiform gyrus), 8.8 mCi, Distribution volume (DV), Fusiform gyrus, subject 4, bolus): 5.68
- Kp ([11]; brain (fusiform gyrus), 9.3 mCi, Distribution volume (DV), Fusiform gyrus, subject 3, bolus): 9.58
- Kp ([11]; brain (hippocampus), 8.1 mCi, Distribution volume (DV), Hippocampus, subject 1, bolus): 13.5
- Kp ([11]; caudate head, Median DV of high plasma nicotine group, Caudate head, six volunteers): 13.7
- Kp ([11]; caudate head, Median DV of low plasma nicotine group, Caudate head, six volunteers): 21.9
- Kp ([11]; cerebellum, 8.1 mCi, Distribution volume (DV), subject 1, bolus): 8.71
- Kp ([11]; cerebellum, 8.8 mCi, Distribution volume (DV), subject 4, bolus): 5.4
- Kp ([11]; cerebellum, 9.3 mCi, Distribution volume (DV), subject 3, bolus): 9.88
- Kp ([11]; cingulate cortex, Median DV of high plasma nicotine group, Cingulate cortex, six volunteers): 12.6
- Kp ([11]; cingulate cortex, Median DV of low plasma nicotine group, Cingulate cortex, six volunteers): 21.4
- Kp ([11]; cingulate gyrus, 8.1 mCi, Distribution volume (DV), subject 1, bolus): 12.6
- Kp ([11]; cingulate gyrus, 8.8 mCi, Distribution volume (DV), subject 4, bolus): 7.55
- Kp ([11]; cingulate gyrus, 9.3 mCi, Distribution volume (DV), subject 3, bolus): 12.4
- Kp ([11]; frontal cortex, Median DV of high plasma nicotine group, Frontal cortex, six volunteers): 9.6
- Kp ([11]; frontal cortex, Median DV of low plasma nicotine group, Frontal cortex, six volunteers): 18
- Kp ([11]; fusiform gyrus, Median DV of high plasma nicotine group, Fusiform gyrus, six volunteers): 9.46
- Kp ([11]; fusiform gyrus, Median DV of low plasma nicotine group, Fusiform gyrus, six volunteers): 19.9
- Kp ([11]; head of the caudate nucleus, 8.1 mCi, Distribution volume (DV), Caudate head, subject 1, bolus): 13.7
- Kp ([11]; head of the caudate nucleus, 8.8 mCi, Distribution volume (DV), Caudate head, subject 4, bolus): 7.75
- Kp ([11]; head of the caudate nucleus, 9.3 mCi, Distribution volume (DV), Caudate head, subject 3, bolus): 13.1
- Kp ([11]; hippocampus, 8.8 mCi, Distribution volume (DV), subject 4, bolus): 8.32
- Kp ([11]; hippocampus, 9.3 mCi, Distribution volume (DV), subject 3, bolus): 14.4
- Kp ([11]; occipital cortex, Median DV of high plasma nicotine group, Occiptal cortex, six volunteers): 7.15
- Kp ([11]; occipital cortex, Median DV of low plasma nicotine group, Occiptal cortex, six volunteers): 14.2
- Kp ([11]; occipital lobe, 8.1 mCi, Distribution volume (DV), Occiptal lobe, subject 1, bolus): 7
- Kp ([11]; occipital lobe, 8.8 mCi, Distribution volume (DV), Occiptal lobe, subject 4, bolus): 4.17
- Kp ([11]; occipital lobe, 9.3 mCi, Distribution volume (DV), Occiptal lobe, subject 3, bolus): 7.15
- Kp ([11]; parietal cortex, Median DV of high plasma nicotine group, Parietal cortex, six volunteers): 9.78
- Kp ([11]; parietal cortex, Median DV of low plasma nicotine group, Parietal cortex, six volunteers): 17
- Kp ([11]; parietal lobe, 8.1 mCi, Distribution volume (DV), subject 1, bolus): 9.78
- Kp ([11]; parietal lobe, 8.8 mCi, Distribution volume (DV), subject 4, bolus): 5.17
- Kp ([11]; parietal lobe, 9.3 mCi, Distribution volume (DV), subject 3, bolus): 8.71
- Kp ([11]; pons, 8.1 mCi, Distribution volume (DV), subject 1, bolus): 15.1
- Kp ([11]; pons, 8.8 mCi, Distribution volume (DV), subject 4, bolus): 9.23
- Kp ([11]; pons, 9.3 mCi, Distribution volume (DV), subject 3, bolus): 20.4
- Kp ([11]; putamen, 8.8 mCi, Distribution volume (DV), subject 4, bolus): 8.74
- Kp ([11]; putamen, 9.3 mCi, Distribution volume (DV), subject 3, bolus): 15.6
- Kp ([11]; temporal cortex, Median DV of high plasma nicotine group, Temporal cortex, six volunteers): 8.39
- Kp ([11]; temporal cortex, Median DV of low plasma nicotine group, Temporal cortex, six volunteers): 15
